13 compounds from US20240228512A1, “ACYCLIC OXAZEPINE COMPOUNDS COMPRISING A 6-AZA MOIETY AND USES THEREOF” (Genentech, Inc., priority 2022, published 2024) can be followed below.

pIC50: −log10 of the molar value.

Experiment [1] concerns SW620 cells. Briefly: SW620 3D proliferation assay (CellTiter-Glo). It is filed as cell-based. The conditions noted are these: Homo sapiens, SW-620, 168 h, SW620, 3D culture, 7 days, read-out: SW620 CTG IC50. The protocol:
(§1) SW620 and HPAC 3D proliferation assays.
(§2) Compound potencies were assessed in proliferation assays conducted with SW620 and HPAC cell lines grown in 3D cultures. Cells were seeded into 96- or 384-well ultra-low attachment plates at 3000 or 1000 cells/well, respectively, in culture medium (RPMI-1640, 10% FBS, 2 mM L-glutamine). The plated cells were centrifuged briefly, allowed to rest for 30 minutes under ambient conditions, and cultured overnight at 37° C./5% CO2 to initiate the formation of spheroids. Compound dilutions were prepared across a range of concentrations in DMSO and added to the appropriate wells of the assay plates with a 333-fold dilution into the culture medium. The plates were further incubated for 7 days. The quantity of viable cells was assessed using CellTiter-Glo 3D Cell Viability Assay (Promega). The detection reagent penetrates the spheroids and lyses the cells. The released ATP that was detected with luciferase and a luciferase substrate to generate a luminescent readout. […] The data points were fit to a 4-parameter logistic equation to determine IC50 values.
(In general: In ATP-based viability assays light output follows the ATP content of the culture.)

Experiment [2] deals with H1975 cells. Briefly: H1975 CTG proliferation assay. It is filed as cell-based. The settings on record: Homo sapiens, NCI-H1975, H1975, CTG.
Experiment [3] relates to HPAC cells. The experiment in a line: HPAC 3D proliferation assay (CellTiter-Glo). It is filed as cell-based. The conditions noted are these: Homo sapiens, 168 h, 3D culture, 7 days, read-out: HPAC CTG IC50. How it is done:
as §1, §2

Experiment [4] has as its system SW620 PERK. The experiment in a line: SW620 PERK assay. It is filed as cell-based. The conditions noted are these: Homo sapiens, SW-620, SW620, PERK.
The target of experiment [5] is recombinant human KRAS wild type (SOS1-mediated nucleotide exchange) (Homo sapiens (Human), UniProt P01116). Briefly: KRAS biochemical assay, BODIPY-GDP exchange TR-FRET (WT-GDP HTRF). The protocol: [Worded in the source for another variant; this variant is reported under the same test.] KRAS Biochemical Assay—BODIPY-GDP Exchange TR-FRET.
Biochemical compound potencies were assessed by evaluating inhibition of SOS1-mediated nucleotide exchange in KRAS G12D. The SOS1-promoted exchange of fluorescently-labeled GDP (BOPIDY-GDP) was monitored by time-resolved fluorescence resonance energy transfer (TR-FRET). Compounds solubilized in DMSO were dispensed as concentration series into 384-well white assay plates. […] The reaction was initiated with the addition of 5 μL of 3 nM recombinant human SOS1 and 300 nM BODIPY-GDP in assay buffer. After a 60-minute incubation, the fluorescence was measured with excitation at 337 nm and emission at 490 and 520 nm. The TR-FRET ratio was determined as the fluorescence at 520 nm divided by the fluorescence at 490 nm multiplied by 10,000. […] The normalized TR-FRET results were plotted against compound concentration, and the data fit to a 4-parameter Hill equation to determine the IC50 values.

Experiment [6] addresses recombinant human mutant KRas G12V (SOS1-mediated nucleotide exchange) (Homo sapiens (Human), UniProt P01116, G12V). The experiment in a line: KRAS biochemical assay, BODIPY-GDP exchange TR-FRET (G12V-GDP HTRF).

recombinant human mutant KRas G12V (SOS1-mediated nucleotide exchange), sequence (P01116-2 other isoform, or with tags, fused parts or gaps G12V): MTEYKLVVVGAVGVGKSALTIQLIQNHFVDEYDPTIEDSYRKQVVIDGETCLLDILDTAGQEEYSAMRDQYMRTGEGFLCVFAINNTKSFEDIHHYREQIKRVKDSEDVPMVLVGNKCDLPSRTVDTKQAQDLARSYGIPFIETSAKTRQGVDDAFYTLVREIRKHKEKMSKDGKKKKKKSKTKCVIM
recombinant human KRAS wild type (SOS1-mediated nucleotide exchange), sequence (P01116-2 other isoform, or with tags, fused parts or gaps): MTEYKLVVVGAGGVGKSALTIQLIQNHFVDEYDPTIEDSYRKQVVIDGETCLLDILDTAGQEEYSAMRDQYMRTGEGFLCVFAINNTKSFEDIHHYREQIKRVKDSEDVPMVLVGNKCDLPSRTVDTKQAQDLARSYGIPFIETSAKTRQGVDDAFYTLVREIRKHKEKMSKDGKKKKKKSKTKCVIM

Regarding `Cc1c(F)c(N)c(F)c(-c2nc3c4c(nc(OC[C@@H]5CCCN5C)nc4c2F)N([C@H](C)c2cccnc2N)CCO3)c1C(F)(F)F` [Example 624, 3-((1R)-1-(5-(3-amino-2,4-difluoro-5-methyl-6-(trifluoromethyl)phenyl)-4-fluoro-2-(((S)-1-methylpyrrolidin-2-yl)methoxy)-8,9-dihydro-10H-7-oxa-1,3,6,10-tetraazacyclohepta[de]naphthalen-10-yl)ethyl)pyridin-2-amine], the pIC50 (in general, the negative decadic logarithm of the IC50, by convention in mol/L) in experiment [1] was 7.94; in experiment [2] it was 6.44; in experiment [3] it was 7.15; in experiment [4], 8.25.

Turning to `Cc1c(F)c(N)cc(-c2nc3c4c(nc(OC[C@@]56CCCN5C[C@H](F)C6)nc4c2F)N([C@H](C)c2cccnc2N)CCO3)c1CC(F)F` [Example 612, 3-((R)-1-(5-(5-amino-2-(2,2-difluoroethyl)-4-fluoro-3-methylphenyl)-4-fluoro-2-(((2R,7aS)-2-fluorotetrahydro-1H-pyrrolizin-7a(5H)-yl)methoxy)-8,9-dihydro-10H-7-oxa-1,3,6,10-tetraazacyclohepta[de]naphthalen-10-yl)ethyl)pyridin-2-amine], the pIC50 in experiment [1] was 7.55; in experiment [2] it was 5.60; in experiment [3], 6.44; in experiment [4], 7.81.

For the compound `Cc1c(F)c(N)cc(-c2nc3c4c(nc(OC[C@@H]5CC[C@H]6COCCN65)nc4c2F)N([C@H](C)c2nccnc2N)CCO3)c1C(F)(F)F` [Example 10, 3-((R)-1-(5-(5-amino-4-fluoro-3-methyl-2-(trifluoromethyl)phenyl)-4-fluoro-2-(((6S,8aS)-hexahydro-1H-pyrrolo[2,1-c][1,4]oxazin-6-yl)methoxy)-8,9-dihydro-10H-7-oxa-1,3,6,10-tetraazacyclohepta[de]naphthalen-10-yl)ethyl)pyrazin-2-amine], the pIC50 is 6.94 in experiment [1], 7.27 in experiment [2], 6.36 in experiment [3] and 7.52 in experiment [4].

For the compound `Cc1c(F)c(N)cc(-c2nc3c4c(nc(OC[C@@H]5CC(F)(F)CN5C)nc4c2F)N([C@H](C)c2cccnc2N)CCO3)c1C(F)(F)F` [Example 20, 3-((R)-1-(5-(5-amino-4-fluoro-3-methyl-2-(trifluoromethyl)phenyl)-2-(((S)-4,4-difluoro-1-methylpyrrolidin-2-yl)methoxy)-4-fluoro-8,9-dihydro-10H-7-oxa-1,3,6,10-tetraazacyclohepta[de]naphthalen-10-yl)ethyl)pyridin-2-amine], the pIC50 in experiment [1] is 7.52; in experiment [2], 6.38; in experiment [3] it was 6.32; in experiment [4] it was 8.07.

In the case of `C[C@H](c1cccnc1N)N1CCOc2nc(-c3c(F)ccc4cnn(C)c34)c(F)c3nc(OC[C@@]45CCCN4C[C@H](F)C5)nc1c23` [Example 634, 3-((1R)-1-(4-fluoro-5-(6-fluoro-1-methyl-1H-indazol-7-yl)-2-(((2R,7aS)-2-fluorotetrahydro-1H-pyrrolizin-7a(5H)-yl)methoxy)-8,9-dihydro-10H-7-oxa-1,3,6,10-tetraazacyclohepta[de]naphthalen-10-yl)ethyl)pyridin-2-amine], the pIC50 is 6.21 in experiment [1], 5.44 in experiment [2], 5.76 in experiment [3] and 7.07 in experiment [4].

Take `Cc1c(F)c(N)c(F)c(-c2nc3c4c(nc(OC[C@@]56CCCN5C[C@H](F)C6)nc4c2F)N([C@H](C)c2nccnc2N)CCO3)c1C(F)(F)F` [Example 13, 3-((1R)-1-(5-(3-amino-2,4-difluoro-5-methyl-6-(trifluoromethyl)phenyl)-4-fluoro-2-(((2R,7aS)-2-fluorotetrahydro-1H-pyrrolizin-7a(5H)-yl)methoxy)-8,9-dihydro-10H-7-oxa-1,3,6,10-tetraazacyclohepta[de]naphthalen-10-yl)ethyl)pyrazin-2-amine]: the pIC50 is 7.57 in experiment [1] and 7.13 in experiment [2].

Take `Cc1cc(N)c(F)c(-c2nc3c4c(nc(OC[C@@]56CCCN5C[C@H](F)C6)nc4c2F)N([C@H](C)c2nccnc2N)CCO3)c1C(F)(F)F` [Example 23, 3-((1R)-1-(5-(3-amino-2-fluoro-5-methyl-6-(trifluoromethyl)phenyl)-4-fluoro-2-(((2R,7aS)-2-fluorotetrahydro-1H-pyrrolizin-7a(5H)-yl)methoxy)-8,9-dihydro-10H-7-oxa-1,3,6,10-tetraazacyclohepta[de]naphthalen-10-yl)ethyl)pyrazin-2-amine]: the pIC50 in experiment [1] is 7.50; in experiment [2] it was 7.49; in experiment [3], 7.04; in experiment [4] it was 8.13.

As to `Cc1c(F)c(N)cc(-c2nc3c4c(nc(OC[C@@H]5CC(F)(F)CN5C)nc4c2F)N([C@H](C)c2nccnc2N)CCO3)c1C(F)(F)F` [Example 8, 3-((R)-1-(5-(5-amino-4-fluoro-3-methyl-2-(trifluoromethyl)phenyl)-2-(((S)-4,4-difluoro-1-methylpyrrolidin-2-yl)methoxy)-4-fluoro-8,9-dihydro-10H-7-oxa-1,3,6,10-tetraazacyclohepta[de]naphthalen-10-yl)ethyl)pyrazin-2-amine], the pIC50 in experiment [1] was 6.34; in experiment [2] it was 6.26; in experiment [3], 5.70; in experiment [4] it was 6.86.

Take `C[C@H](c1cccnc1N)N1CCOc2nc(-c3c(C(F)(F)F)cc(F)c(N)c3F)c(F)c3nc(OC[C@@]45CCCN4C[C@H](F)C5)nc1c23` [Example 621, 3-((1R)-1-(5-(3-amino-2,4-difluoro-6-(trifluoromethyl)phenyl)-4-fluoro-2-(((2R,7aS)-2-fluorotetrahydro-1H-pyrrolizin-7a(5H)-yl)methoxy)-8,9-dihydro-10H-7-oxa-1,3,6,10-tetraazacyclohepta[de]naphthalen-10-yl)ethyl)pyridin-2-amine]: the pIC50 was 7.51 in experiment [1], 7.01 in experiment [2], 6.47 in experiment [3] and 7.66 in experiment [4].

For the compound `Cc1c(F)c(N)cc(-c2nc3c4c(nc(OC[C@@]56CCCN5C[C@H](F)C6)nc4c2Cl)N([C@H](C)c2cccnc2N)CCO3)c1C(F)(F)F` [Example 32, 3-((R)-1-(5-(5-amino-4-fluoro-3-methyl-2-(trifluoromethyl)phenyl)-4-chloro-2-(((2R,7aS)-2-fluorotetrahydro-1H-pyrrolizin-7a(5H)-yl)methoxy)-8,9-dihydro-10H-7-oxa-1,3,6,10-tetraazacyclohepta[de]naphthalen-10-yl)ethyl)pyridin-2-amine], the pIC50 in experiment [1] was 8.65; in experiment [2], 8.15; in experiment [3], 7.73; in experiment [4], 8.61.

As to `Cc1c(F)c(N)cc(-c2nc3c4c(nc(OC[C@@]56CCCN5C[C@H](F)C6)nc4c2F)N([C@H](C)c2nccnc2N)CCO3)c1C(F)(F)F` [Example 9, 3-((R)-1-(5-(5-amino-4-fluoro-3-methyl-2-(trifluoromethyl)phenyl)-4-fluoro-2-(((2R,7aS)-2-fluorotetrahydro-1H-pyrrolizin-7a(5H)-yl)methoxy)-8,9-dihydro-10H-7-oxa-1,3,6,10-tetraazacyclohepta[de]naphthalen-10-yl)ethyl)pyrazin-2-amine], the pIC50 in experiment [1] was 7.58; in experiment [2] it was 7.95; in experiment [3], 7.13; in experiment [4] it was 7.71.

Consider `C#Cc1cccc2cc(O)cc(-c3nc4c5c(nc(OC[C@@]67CCCN6C[C@H](F)C7)nc5c3F)N([C@H](C)c3nccnc3N)CCO4)c12` [Example 11, 4-(10-((R)-1-(3-aminopyrazin-2-yl)ethyl)-4-fluoro-2-(((2R,7aS)-2-fluorotetrahydro-1H-pyrrolizin-7a(5H)-yl)methoxy)-9,10-dihydro-8H-7-oxa-1,3,6,10-tetraazacyclohepta[de]naphthalen-5-yl)-5-ethynyinaphthalen-2-ol], for which the pIC50 in experiment [1] was 8.27; in experiment [2] it was 8.59; in experiment [3] it was 6.76; in experiment [4], 8.72.

As to `Cc1nc(N)c(Cl)c(-c2nc3c4c(nc(OC[C@@]56CCCN5C[C@H](F)C6)nc4c2F)N([C@H](C)c2cccnc2N)CCO3)c1C(F)(F)F` (single isomer, unassigned) [Example 601b], the pIC50 is 8.50 in experiment [5] and 9.12 in experiment [6].
